“And” between values parts separate entries of the source, which are not always exact repeats. Equal entries are not always repeated.
SMILES: COc1cc2c(cc1OC)C(=O)C(C(=O)c1ccncc1)C2 (stereo not shown)
- melting point: 204 to 207 °C and 203 to 206 °C
